Measured values from US20050233435A1, “Plasmodium axenic liver stages as a noninfectious whole organism malaria vaccine” (priority 2003, published 2005).

Test system: P. berghei sporozoites
Assay: Host cell-free transformation of sporozoites into EEFs (liver stages)
Format: cell-based
Settings: Plasmodium berghei; lactacystin 10 μM in the culture medium
Method: Transformation medium and quantification of transformation: Sporozoites were suspended in DMEM medium (BioWhittaker) containing 2 mM of L-glutamine, 4.5 g/l glucose and supplemented with 10% Fetal Bovine Serum (FBS; HyClone) and 500 U/ml penicillin/streptomycin and 1.25 μl/ml fungizon (Sigma). For the generation of Plasmodium axenic liver stages, 5×10^4 sporozoites were inoculated per well of a 8 well chamber slide (Labtek) and maintained at 37° C. in 5% CO2. Initially, slides were coated with Matrigel (Becton Dickinson) at density of 100 μg/cm^2 to improve the development. Matrigel improved attachment of the parasites to the slide, but was not essential for transformation.
To determine transformation rates for various conditions and slides, the host cell-free cultures of GFP-expressing P. berghei sporozoites were examined by fluorescence microscopy at 400× magnification using an Eclipse TE 300 fluorescence microscope (Nikon, Inc.) using a green filter (excitation wavelength 495 nm/emission wavelength 519 nm). EEFs were scored as completely transformed only when they appeared completely spherical with no sporozoite remnants visible. Each count was performed in triplicate on three independent experiments done with sporozoites isolated from different batches of infected mosquitoes.

`CC(=O)N[C@@H](CSC(=O)[C@]1([C@@H](O)C(C)C)NC(=O)[C@H](C)[C@@H]1O)C(=O)O` [lactacystin] gave an inhibition at 10 µM of ~70%.
